The values that follow come from patent publication US20170209402A1, “CARBOXY-CYCLOPROPYL UNDECANOL COMPOUNDS FOR TREATMENT OF LIVER DISEASE AND OTHER MEDICAL DISORDERS” (Esperion Therapeutics, Inc., priority 2014, published 2017).

This test concerns C57BL/6N male mice fed high-fat diet. Briefly: Hepatic triglyceride levels in C57BL/6N male mice receiving a high-fat diet. The format is in vivo. Conditions: 3 weeks HFD, compound as diet admix 289 mg/kg HFD (~30 mg/kg/day) for final 2 weeks, 4-hour fast, group mean, HFD alone 1.6, NC 0.6. As to the method:
An assay was performed to determine the effect of administering Compounds A and B to C57BL/6N male mice receiving a high-fat diet.
C57BL/6N male mice were obtained from Charles River Laboratories (Montreal, QC, Canada) at 11 weeks of age and singly housed on alpha-dri paper bedding on a normal 12 hour, 6 am-6 pm light-dark cycle. Upon arrival, 27 mice were fed D12492 high fat diets (HFD) containing 60% kcal fat while 9 mice were fed D12450K normal chow diet (NC) for 1 week with free access to water. Mice that had been fed D12492 were allocated into three equally distributed treatment arms of 9 mice each at 12 weeks of age based on 4-hour fasted blood glucose and body weight. […]
Following a 4-hour fast, mice were euthanized and a random lobe of liver was flash frozen in liquid nitrogen for subsequent hepatic lipid analysis. […] A 10 μL aliquot of the prepared sample was injected into the HPLC-ELSD system utilizing a Spherisorb® S5W Silica gel 5 μm, 100×4.6 mm ID HPLC column (Waters) running a 99:1 isooctane:tetrahydrofuran (mobile phase A), 2:1 acetone:CH2Cl2 (mobile phase B), 85:15 isopropanol:7.5 mM acetic acid/7.5 mM ethanolamine (mobile phase C) gradient before being detected using evaporative light scattering detection (ELSD) on an SEDEX® 75 detector (Sedere, Inc., Lawrenceville, N.J.). […]

In the case of `O=C(O)C1(CCCCCC(O)CCCCCC2(C(=O)O)CC2)CC1` [Compound A, 1,11-bis-(1-carboxy-cyclopropyl)-undecan-6-ol], the “Hepatic TG” value was 0.6 % w/w. On to `CC(C)(CCCCCC(O)CCCCCC(C)(C)C(=O)O)C(=O)O` [Compound B], for which the “Hepatic TG” value was 1.1 % w/w.
